Measurements published in PubChem BioAssay AID1912 (The Scripps Research Institute Molecular Screening Center, 2009).
Calls of active or inactive are those of the source. No rule for the calls is given here.

target: Luciferin 4-monooxygenase (Photinus pyralis) (UniProt P08659); test: firefly luciferase inhibitor potency, HSP90 counter-screen, dose response, artefact control for HSP90 inhibitor project, biochemical, luminescence (AID 1912); details: purified firefly luciferase, luminescence inhibition
Sequence (P08659 whole entry, looked up): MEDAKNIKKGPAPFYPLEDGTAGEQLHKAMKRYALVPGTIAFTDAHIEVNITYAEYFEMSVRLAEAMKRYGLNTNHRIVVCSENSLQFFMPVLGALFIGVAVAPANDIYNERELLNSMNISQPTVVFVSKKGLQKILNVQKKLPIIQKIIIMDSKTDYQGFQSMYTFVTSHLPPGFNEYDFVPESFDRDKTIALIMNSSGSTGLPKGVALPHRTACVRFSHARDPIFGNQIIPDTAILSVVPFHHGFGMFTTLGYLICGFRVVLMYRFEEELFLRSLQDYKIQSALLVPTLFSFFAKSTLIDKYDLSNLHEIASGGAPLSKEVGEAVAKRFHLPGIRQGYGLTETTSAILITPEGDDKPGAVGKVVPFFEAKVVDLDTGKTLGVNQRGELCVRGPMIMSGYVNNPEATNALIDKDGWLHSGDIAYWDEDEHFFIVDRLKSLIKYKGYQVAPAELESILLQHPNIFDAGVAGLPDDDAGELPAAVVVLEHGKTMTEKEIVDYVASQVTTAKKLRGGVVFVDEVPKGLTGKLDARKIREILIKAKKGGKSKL

| Structure (SMILES) | IC50 |
| --- | --- |
| COC(=O)c1cc(C)nc2c1C(=O)C(=O)C=C2N1CCOCC1 | > 20 µM (inactive) |
| COC(=O)c1ccccc1NC1=C/C(=N\S(=O)(=O)c2ccc(C(=O)O)cc2)c2ccccc2C1=O | > 60 µM (inactive) |
| CC1=NN(c2ccccc2)C(=O)/C1=C\N(O)c1ccccc1 | > 60 µM (inactive) |
| CCOc1ccc(-c2nc(CN(Cc3ccccc3)C[C@@H]3CCC(=O)N3)c(C)o2)cc1 | > 60 µM (inactive) |
| O=C(CN1C(=O)c2ccccc2S1(=O)=O)c1ccc2c(c1)OCCO2 | > 60 µM (inactive) |
| Cc1c(-c2nc(-c3ccc(C(F)(F)F)cc3)no2)n(C)oc1=O | > 60 µM (inactive) |
| CN(C)c1ccc(C2Nc3cccc4cccc(c34)N2)cc1 | > 60 µM (inactive) |
| CCc1ccc(Nc2n[n+](-c3ccccc3)c(-c3ccc(N(CC)CC)cc3)s2)cc1 | > 60 µM (inactive) |
| Cc1nc2ccc(C(=O)O)cc2[nH]1 | > 60 µM (inactive) |
| Cc1nc(NC(=O)c2cccc(Cl)c2)sc1C(=O)N1CCCCC1 | > 60 µM (inactive) |
| Cc1cc(NO)nc(-c2ccc(Br)cc2)n1 | > 60 µM (inactive) |
| Cc1ccccc1NC1=C/C(=N\S(=O)(=O)c2cccs2)c2ccccc2C1=O | > 20 µM (inactive) |
| Cc1cccc(N(O)C(=O)Nc2cccc(Cl)c2)c1 | > 60 µM (inactive) |
| CCOC(=O)C1=C(c2ccc(OC)cc2)C(=O)c2ccccc2C1=O | > 60 µM (inactive) |
| CC(=O)Nc1ccc(NC2=C/C(=N/S(=O)(=O)c3cccs3)c3ccccc3C2=O)cc1 | > 60 µM (inactive) |
| Cc1oc(-c2ccc(-c3ccccc3)cc2)nc1CN(C)C1CCOC1 (stereo unspecified) | > 60 µM (inactive) |
| COc1ccc(-c2cc3c(=O)n(CC(=O)NCCCN4CCC(Cc5ccccc5)CC4)ncn3n2)cc1 | inactive |
| CC(C)(C)c1ccc(C(=O)c2c[nH]c(C(=O)O)c2)cc1 | inactive |
| COC(=O)C1CCN(C(=O)c2ccc3nc(-c4cccc(OC)c4)oc3c2)CC1 | > 60 µM (inactive) |
| COc1cc(N2Cc3ccccc3C2)ccc1C=O | > 60 µM (inactive) |
| CC(=O)c1ccc(N=Nc2c(C)[nH]n(-c3ccccc3)c2=O)cc1 | > 60 µM (inactive) |
| Cc1cc(C)c(S(=O)(=O)/N=C2\C=C(Nc3ccc(C(=O)O)cc3)C(=O)c3ccccc32)c(C)c1 | > 60 µM (inactive) |
| COC(=O)c1ccc(COc2ccc3c(c2)CCC3)o1 | > 60 µM (inactive) |
| CCC(=O)Nc1ccccc1C(=O)OCC(=O)c1ccccc1 | > 60 µM (inactive) |
| [O-]/[N+](=C\c1ccco1)c1ccc(Cl)cc1 | > 60 µM (inactive) |
| CS(=O)(=O)c1ccc(-c2cn3cc(C(=O)O)ccc3n2)cc1 | inactive |

| Structure (SMILES) | IC50 |
| --- | --- |
| CCc1ccc(S(=O)(=O)/N=C2\C=C(Nc3ccc(C(=O)O)cc3)C(=O)c3ccccc32)cc1 | > 60 µM (inactive) |
| O=C1c2cc(F)ccc2-n2c1nc1ccccc1c2=O | > 60 µM (inactive) |
| C=CCOC(=O)c1sc(NC(=O)c2ccc(OC)cc2)nc1C | > 60 µM (inactive) |
| CCOC(=O)c1ccc(-c2ccc(C=O)o2)cc1 | > 60 µM (inactive) |
| Cc1nc(CS(=O)(=O)c2ccc(Cl)cc2)sc1C(=O)O | > 60 µM (inactive) |
| COCC(C)n1c(C)cc(C(=O)Cn2nc(C(=O)O)c3ccccc3c2=O)c1C (stereo unspecified) | > 60 µM (inactive) |
| CCCCn1c(NC(=O)c2ccccc2Cl)c(C#N)c2nc3ccccc3nc21 | > 60 µM (inactive) |
| O=c1oc2ccc(Cl)cc2nc1/C=C(\O)c1ccco1 | > 60 µM (inactive) |
| O=C(O)c1cccc(-n2c(O)c(C=C3N=c4ccccc4=N3)sc2=S)c1 | > 60 µM (inactive) |
| Cc1ccc(C(=O)CSc2ccccc2C(=O)O)cc1 | inactive |
| Cc1ccc(/C=C2/C(=O)c3ccc(C(=O)O)cc3C2=O)o1 | > 60 µM (inactive) |
| COC(=O)c1ccccc1OCCCOc1ccc(C=O)cc1OC | > 60 µM (inactive) |
| COc1ccccc1NC(=O)c1coc(=O)c(Br)c1 | > 60 µM (inactive) |
| Cc1cc(C)c2nc(N3CCC(C(=O)NCCCN4CC(C)CC(C)C4)CC3)sc2c1 (stereo unspecified) | > 60 µM (inactive) |
| O=[N+]([O-])c1ccc(S(=O)(=O)N2CCN=C2SCc2ccc(F)cc2)cc1 | > 60 µM (inactive) |
| COC(=O)c1ccc(COc2ccc3c(C)c(C)c(=O)oc3c2)o1 | > 60 µM (inactive) |
| Cc1ccc(C(=O)CN2C(=O)c3ccccc3S2(=O)=O)cc1 | > 60 µM (inactive) |
| O=c1oc2ccc(Cl)cc2nc1/C=C(\O)c1cccs1 | > 60 µM (inactive) |
| COc1cc(/C=N/Nc2ccc(Cl)c(C(=O)O)c2)ccc1OC(=O)c1ccc(F)cc1 | > 60 µM (inactive) |
| CC(=O)Nc1ccccc1OCC(=O)c1cc(C)n(Cc2cccs2)c1C | > 60 µM (inactive) |
| O=C(O)c1ccc(NC2=C/C(=N/S(=O)(=O)c3ccccc3)c3ccccc3C2=O)cc1 | > 60 µM (inactive) |
| CCN(CC)c1ccc2cc(NC(=O)CCC(=O)O)c(=O)oc2c1 | > 60 µM (inactive) |
| C#CCn1cc(/C=C2\NC(=O)NC2=O)c2ccccc21 | > 60 µM (inactive) |
| CCc1ccc(S(=O)(=O)/N=C2\C=C(Nc3ccc(O)cc3)C(=O)c3ccccc32)cc1 | > 60 µM (inactive) |
| CCCCOc1ccc(-c2cc(C(=O)NNC(=S)NCC)c3ccccc3n2)cc1 | inactive |
| CCOC(=O)c1csc(NC(=O)c2cc3ccccc3o2)n1 | > 60 µM (inactive) |

| Structure (SMILES) | IC50 |
| --- | --- |
| CCOC(=O)c1sc(NC(=O)c2ccc(C)o2)nc1C | > 60 µM (inactive) |
| COc1ccc(C(=O)Oc2ccc(/C=N/Nc3ccc(Cl)c(C(=O)O)c3)cc2OC)cc1 | > 60 µM (inactive) |
| O=C(CN1C(=O)c2ccccc2S1(=O)=O)c1ccccc1Cl | inactive |
| CNC(=S)N/N=C/c1ccc(-c2ccc(C(=O)O)cc2)o1 | > 60 µM (inactive) |
| CC(=O)Nc1ccc(OS(=O)(=O)c2ccc([N+](=O)[O-])cc2)cc1 | > 60 µM (inactive) |
| CCC(C)c1ccc(OCc2ccc(C(=O)OC)o2)cc1 (stereo unspecified) | > 60 µM (inactive) |
| COc1ccc(/C=C/c2noc(-c3ccccc3OC(C)=O)n2)cc1 | inactive |
| Nc1cc(-c2ccccc2)ccc1O | > 60 µM (inactive) |
| COc1ccc(N(/N=C2\Sc3ccccc3C2=O)C(C)=O)cc1 | > 60 µM (inactive) |
| O=C(OCc1ccccn1)c1ccc(COc2ccc3ccccc3c2)o1 | > 60 µM (inactive) |
| Cc1c(-c2nc(-c3ccc(C(C)(C)C)cc3)no2)n(C)oc1=O | > 60 µM (inactive) |
| CC1CCN(c2ccc(-c3cccc(NC(=O)C(F)(F)F)c3)nn2)CC1 | > 60 µM (inactive) |
| CC(=O)Oc1ccccc1/C=C/c1nc2ccccc2c(=O)o1 | > 60 µM (inactive) |
| O=C(O)CSCC(=O)Nc1ccc(C2CCCCC2)cc1 | > 60 µM (inactive) |
| COC(=O)c1ccc(N/C=C/C(=O)c2ccccc2)cc1 | inactive |
| CCN(CC)c1ccc(SS(=O)(=O)O)cc1 | > 60 µM (inactive) |
| Cc1nc(NC(=O)c2ccc(F)cc2)sc1C(=O)Nc1ccc2c(c1)CCC2 | > 60 µM (inactive) |
| O=[N+]([O-])/C=C/c1ccc2c(ccn2Cc2ccccc2)c1 | > 60 µM (inactive) |
| Cc1ccc(/C=C2\SC(=S)N(CCCC(=O)Nc3ccccn3)C2=O)cc1 | > 60 µM (inactive) |
| CCOc1ccc(-c2nc(CN3CCCCC3CCn3cccn3)c(C)o2)cc1 (stereo unspecified) | > 60 µM (inactive) |
| Cc1ccc(S(=O)(=O)/N=C2\C=C(Nc3cccc(C(=O)O)c3)C(=O)c3ccccc32)c(C)c1 | > 60 µM (inactive) |
| CC(=O)CSc1ccc(-c2nc3ccccc3[nH]2)cn1 | > 60 µM (inactive) |
| COc1cc(/C=C/[N+](=O)[O-])ccc1OCc1cccc(C(=O)O)c1 | inactive |
| Cc1ccc2nc(NC(=O)CSCC(=O)OCC(=O)c3ccccc3)sc2c1 | > 60 µM (inactive) |
| CCOC(=O)C1CCCN(C(=O)c2sc3nc(-c4ccc(OC)cc4)cn3c2C)C1 (stereo unspecified) | > 60 µM (inactive) |
| O=S(=O)(Cc1ccccc1)N(O)c1ccccc1 | > 60 µM (inactive) |

| Structure (SMILES) | IC50 |
| --- | --- |
| COCCn1c(C)cc(C(=O)Cn2nc(C(=O)O)c3ccccc3c2=O)c1C | inactive |
| Cc1nc(NC(=O)/C=C/c2ccccc2)sc1C(=O)Nc1ccccc1Cl | > 60 µM (inactive) |
| Cc1ccc2oc(=O)c(/C=C(\O)c3ccco3)nc2c1 | > 60 µM (inactive) |
| CCOC(=O)c1csc(COc2ccc(OC)cc2)n1 | > 60 µM (inactive) |
| C=CCOc1c(CNc2cccc(C(=O)O)c2)cccc1OC | > 60 µM (inactive) |
| Cc1cc2ccccc2n1CCNC(=O)c1cccs1 | > 60 µM (inactive) |
| Cc1ccccc1NC1=C/C(=N\S(=O)(=O)c2ccc(C(=O)O)cc2)c2ccccc2C1=O | inactive |
| CC(=O)Oc1ccc(Nc2ccccc2)cc1 | > 60 µM (inactive) |
| Cc1cc(NC(=O)c2coc(=O)c(Br)c2)ccc1C(C)C | > 60 µM (inactive) |
| Cc1ccc(S(=O)(=O)/N=C2\C=C(Nc3cccc(C(=O)O)c3)C(=O)c3ccccc32)cc1 | > 60 µM (inactive) |
| O=C(CN1C(=O)c2ccccc2S1(=O)=O)N1CCc2ccccc21 | > 60 µM (inactive) |
| Cc1ccc(OCc2ccc(C(=O)O)o2)cc1C | inactive |
| Nc1c(-c2ccccc2)cnn1-c1ccc(C(=O)O)cc1 | inactive |
| CCOC(=O)c1csc(NC(=O)c2ccc3c(c2)OCCO3)n1 | > 60 µM (inactive) |
| CCc1ccc(OCc2ccc(C(=O)OC)o2)cc1 | > 60 µM (inactive) |
| C=CCn1c(NS(=O)(=O)c2ccccc2)c(S(=O)(=O)c2ccc(C)cc2)c2nc3ccccc3nc21 | > 60 µM (inactive) |
| COc1cc(/C=N/Nc2ccc(Cl)c(C(=O)O)c2)ccc1OC(=O)c1cccs1 | > 60 µM (inactive) |
| O=[N+]([O-])c1ccc(N=Nc2ncc[nH]2)cc1 | > 60 µM (inactive) |
| O=C(O)c1cc(N/N=C/c2c[nH]c3ccccc23)ccc1Cl | > 60 µM (inactive) |
| CN1C(=O)S/C(=C/c2ccc(OCc3cccc(C(=O)O)c3)cc2)C1=O | > 20 µM (inactive) |
| O=C(CSc1ncccc1C(=O)O)c1ccc2ccccc2c1 | inactive |
| O=C(O)c1cc(N/N=C/c2cccnc2)ccc1Cl | > 60 µM (inactive) |
| COC(=O)C[C@]1(C(=O)OC)CN(C#N)N(c2ccc(Cl)cc2)C12c1ccccc1-c1ccccc12 | > 60 µM (inactive) |
